Patent US9062038B2, “Heteroaryls and uses thereof” (Millennium Pharmaceuticals, Inc., priority 2010, dated 2015)

What was measured:
[1] = molecular target: T1, PI3K beta (Homo sapiens, UniProt P42338); assay: Human PI3K beta enzyme assay (HTRF, procedure as for PI3K alpha); format: biochemical
T1 construct: His (N); host or cells: SF9 insect cells (baculovirus)
Excerpt: (§1) The catalytic subunits of PI3Ks are cloned into either pDEST8(p110 alpha) or pDEST10(p110beta, p110delta, and p110gamma) as N-terminal His tagged fusion proteins using the Gateway system (Invitrogen, catalog#11804-010 for pDEST8 and 11806-015 for pDEST10). The sequences are verified before recombinant protein expression using the Baculovirus Expression System with Gateway® Technology. The accession numbers for the subunits are as follows: • p110 alpha (GB: U79143) • p110beta (GB: S67334) • p110delta (GB: U86453) • p110gamma (GB: X83368)
(§2) The regulatory subunits of PI3Ks are cloned into pDEST8 as un-tagged protein using the Gateway system (Catalog#11804-010). […]
0.5 uL compounds in DMSO are added to wells of a 384 well microtitre plate (Corning 3575). […] Then 5 ul PI3K stop mix (50 mM Hepes, 5 mM DTT, 150 mM NaCl, 0.01% Tween-20, 15 mM EDTA and 25 nM biotin-PI(3,4,5)P3 (Echelon) is added to quench the reaction followed immediately by addition of 5 ul HTRF detection mix (50 mM Hepes, 5 mM DTT, 150 mM NaCl, 0.01% Tween-20, 40 mM KF, 10 nM GST:GRP-1 PH domain (Millennium Protein Sciences Group), 15 nM Streptavidin-XL (CisBio) and 0.375 nM anti-GST antibody (CisBio) at pH 7.00). The plates are then incubated for 1 hour at room temperature with shaking and then read on a BMG PheraStar Plus reader. […]

[2] = molecular target: T2, PI3Kalpha (Homo sapiens, UniProt P42336); assay: Human PI3Kα enzyme assay (HTRF); format: biochemical
T2 construct: His (N); host or cells: SF9 insect cells (baculovirus)
Excerpt: as §1, §2
0.5 uL compounds in DMSO are added to wells of a 384 well microtitre plate (Corning 3575). […] Then 5 ul PI3K stop mix (50 mM Hepes, 5 mM DTT, 150 mM NaCl, 0.01% Tween-20, 15 mM EDTA and 25 nM biotin-PI(3,4,5)P3 (Echelon) is added to quench the reaction followed immediately by addition of 5 ul HTRF detection mix (50 mM Hepes, 5 mM DTT, 150 mM NaCl, 0.01% Tween-20, 40 mM KF, 10 nM GST:GRP-1 PH domain (Millennium Protein Sciences Group), 15 nM Streptavidin-XL (CisBio) and 0.375 nM anti-GST antibody (CisBio) at pH 7.00). The plates are then incubated for 1 hour at room temperature with shaking and then read on a BMG PheraStar Plus reader.

T2 sequence (P42336 whole entry): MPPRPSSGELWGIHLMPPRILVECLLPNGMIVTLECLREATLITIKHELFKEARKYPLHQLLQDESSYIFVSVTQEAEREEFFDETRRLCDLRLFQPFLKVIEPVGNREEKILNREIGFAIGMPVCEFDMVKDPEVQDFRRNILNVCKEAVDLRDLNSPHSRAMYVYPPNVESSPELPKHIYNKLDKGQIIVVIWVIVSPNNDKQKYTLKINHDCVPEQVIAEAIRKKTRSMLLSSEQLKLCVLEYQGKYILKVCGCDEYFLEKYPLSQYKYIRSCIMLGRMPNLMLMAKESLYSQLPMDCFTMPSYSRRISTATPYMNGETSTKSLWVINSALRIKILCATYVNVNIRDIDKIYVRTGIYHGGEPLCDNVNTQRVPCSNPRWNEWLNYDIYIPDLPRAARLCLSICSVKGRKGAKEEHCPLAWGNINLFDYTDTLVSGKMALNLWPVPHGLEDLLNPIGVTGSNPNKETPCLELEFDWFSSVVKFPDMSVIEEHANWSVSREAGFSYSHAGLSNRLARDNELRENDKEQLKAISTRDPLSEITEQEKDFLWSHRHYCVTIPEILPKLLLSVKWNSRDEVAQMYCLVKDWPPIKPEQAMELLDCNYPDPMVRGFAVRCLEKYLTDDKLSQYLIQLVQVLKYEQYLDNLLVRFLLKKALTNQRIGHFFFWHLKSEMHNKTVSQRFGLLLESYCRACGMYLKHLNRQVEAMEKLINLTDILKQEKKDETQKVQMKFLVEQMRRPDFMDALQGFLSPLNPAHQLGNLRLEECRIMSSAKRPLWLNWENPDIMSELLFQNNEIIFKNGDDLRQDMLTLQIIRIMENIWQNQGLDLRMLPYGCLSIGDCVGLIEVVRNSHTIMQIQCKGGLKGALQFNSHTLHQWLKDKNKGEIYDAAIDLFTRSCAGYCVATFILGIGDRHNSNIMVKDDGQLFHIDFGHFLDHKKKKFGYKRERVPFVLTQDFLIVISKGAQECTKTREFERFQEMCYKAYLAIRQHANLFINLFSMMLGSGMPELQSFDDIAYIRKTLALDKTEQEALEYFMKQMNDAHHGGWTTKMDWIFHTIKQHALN
T2 sequence (P27986 whole entry partner): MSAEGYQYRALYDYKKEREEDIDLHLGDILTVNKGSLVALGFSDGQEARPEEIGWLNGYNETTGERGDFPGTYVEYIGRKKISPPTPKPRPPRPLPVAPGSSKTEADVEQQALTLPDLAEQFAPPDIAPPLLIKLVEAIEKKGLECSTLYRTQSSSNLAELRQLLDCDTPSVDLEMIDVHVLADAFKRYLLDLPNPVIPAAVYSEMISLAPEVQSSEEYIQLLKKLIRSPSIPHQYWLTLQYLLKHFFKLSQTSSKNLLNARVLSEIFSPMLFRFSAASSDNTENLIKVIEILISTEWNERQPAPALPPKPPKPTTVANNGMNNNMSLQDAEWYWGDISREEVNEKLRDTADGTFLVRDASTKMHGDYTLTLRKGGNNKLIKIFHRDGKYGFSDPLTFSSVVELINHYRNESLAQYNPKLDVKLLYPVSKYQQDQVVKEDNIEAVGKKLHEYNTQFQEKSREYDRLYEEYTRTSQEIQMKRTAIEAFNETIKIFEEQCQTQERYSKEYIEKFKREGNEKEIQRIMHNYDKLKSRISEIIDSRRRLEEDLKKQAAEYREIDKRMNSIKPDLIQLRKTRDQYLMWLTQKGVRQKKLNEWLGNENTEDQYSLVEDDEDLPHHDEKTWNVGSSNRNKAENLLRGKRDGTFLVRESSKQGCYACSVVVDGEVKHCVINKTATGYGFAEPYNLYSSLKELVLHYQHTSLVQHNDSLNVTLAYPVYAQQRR
T1 sequence (P42338 whole entry): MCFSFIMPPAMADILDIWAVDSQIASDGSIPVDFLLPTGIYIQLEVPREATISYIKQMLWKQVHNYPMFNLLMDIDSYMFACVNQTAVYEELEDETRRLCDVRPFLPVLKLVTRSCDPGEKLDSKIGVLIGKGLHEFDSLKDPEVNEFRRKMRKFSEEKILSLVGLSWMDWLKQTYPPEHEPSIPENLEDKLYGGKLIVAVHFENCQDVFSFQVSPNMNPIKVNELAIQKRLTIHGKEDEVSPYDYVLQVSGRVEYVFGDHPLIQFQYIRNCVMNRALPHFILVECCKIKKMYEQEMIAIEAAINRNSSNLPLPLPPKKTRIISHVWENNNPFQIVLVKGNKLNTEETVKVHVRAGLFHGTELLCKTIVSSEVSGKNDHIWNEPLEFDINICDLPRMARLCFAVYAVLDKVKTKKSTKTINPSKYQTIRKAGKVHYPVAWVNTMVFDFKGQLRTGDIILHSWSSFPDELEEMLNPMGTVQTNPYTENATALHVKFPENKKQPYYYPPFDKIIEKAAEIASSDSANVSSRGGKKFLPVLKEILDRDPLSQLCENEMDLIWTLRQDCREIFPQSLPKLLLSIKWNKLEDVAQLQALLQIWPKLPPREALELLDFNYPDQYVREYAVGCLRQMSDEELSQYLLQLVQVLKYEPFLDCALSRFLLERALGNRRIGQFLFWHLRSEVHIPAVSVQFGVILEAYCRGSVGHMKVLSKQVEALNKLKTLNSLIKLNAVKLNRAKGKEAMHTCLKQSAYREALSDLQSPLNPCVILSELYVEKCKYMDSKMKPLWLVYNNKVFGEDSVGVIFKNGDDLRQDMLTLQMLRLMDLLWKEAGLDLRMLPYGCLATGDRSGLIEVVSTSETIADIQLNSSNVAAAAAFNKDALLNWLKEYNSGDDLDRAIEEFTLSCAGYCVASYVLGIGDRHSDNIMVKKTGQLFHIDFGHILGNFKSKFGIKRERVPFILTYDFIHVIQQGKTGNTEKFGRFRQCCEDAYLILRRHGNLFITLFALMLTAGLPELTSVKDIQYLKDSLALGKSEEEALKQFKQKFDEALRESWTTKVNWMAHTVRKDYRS
T1 sequence (P27986 whole entry partner): as the sequence (P27986 whole entry partner) above

IC50 [1] [µM] | IC50 [2] [µM] | SMILES
0.1 to 1 | > 1 | Clc1ccc(Cc2oc(-c3ccncc3)nc2-c2nnc[nH]2)cc1 [Compound 2, 4-[5-(4-chlorobenzyl)-4-(4H-1,2,4-triazol-3-yl)-1,3-oxazol-2-yl]pyridine]
0.1 to 1 | > 1 | NC(=O)c1nc(-c2ccncc2)oc1Cc1ccc(Cl)cc1 [Compound 1, 5-(4-chlorobenzyl)-2-pyridin-4-yl-1,3-oxazole-4-carboxamide]
